Assay results published in patent US20110086899A1, “PHARMACEUTICAL COMPOSITIONS FOR ORAL ADMINISTRATION” (XENON PHARMACEUTICALS INC., priority 2009, published 2011).
pIC50: −log10 of the molar value. “Also recorded” adds a separate entry of the source.

Experiments:
[1] = solubility in excipients and excipient combinations; assay type: physicochemical
Experimental: Determination of the solubility of a spiro-oxindole compound of the invention, as a racemate, a single enantiomer, or a non-racemic mixture of enantiomers, or a pharmaceutically acceptable salt thereof, in each of the above excipients was carried out by weighing a specified quantity of the excipient into a scintillation vial and then adding a weighed quantity of the spiro-oxindole compound of the invention, as a racemate, a single enantiomer, or a non-racemic mixture of enantiomers, or a pharmaceutically acceptable salt thereof. Heating and vortexing was then applied as required to dissolve the spiro-oxindole compound of the invention, as a racemate, a single enantiomer, or a non-racemic mixture of enantiomers, or a pharmaceutically acceptable salt thereof. If the initial quantity of the spiro-oxindole compound of the invention, as a racemate, a single enantiomer, or a non-racemic mixture of enantiomers, or a pharmaceutically acceptable salt thereof, dissolved, then an additional amount of the spiro-oxindole compound of the invention, as a racemate, a single enantiomer, or a non-racemic mixture of enantiomers, or a pharmaceutically acceptable salt thereof, was added to determine the maximum solubility.
The rationale for preparing each combination is given as well: […]

sodium channel = experiment: guanidine influx assay (WO 06/110917, BIOLOGICAL EXAMPLE 1); assay type: cell-based; settings: inhibition of ion flux through a sodium channel
Experimental: Typically, a successful therapeutic effective amount of an pharmaceutical composition of the invention for oral administration to a mammal, in need thereof, will meet some or all of the following criteria. Animal model efficacy of a spiro-oxindole compound of the invention, as a racemate, a single enantiomer, or a non-racemic mixture of enantiomers, or a pharmaceutically acceptable salt thereof, should be less than about 0.1 μg/Kg to about 100 mg/Kg body weight and the target human dose of a spiro-oxindole compound of the invention, as a racemate, a single enantiomer, or a non-racemic mixture of enantiomers, or a pharmaceutically acceptable salt thereof, should be between 0.1 μg/Kg to about 100 mg/Kg body weight, although doses outside of this range may be acceptable (“mg/Kg” means milligrams of compound per kilogram of body mass of the subject to whom it is being administered). The therapeutic index (or ratio of toxic dose to therapeutic dose) of a spiro-oxindole compound of the invention, as a racemate, a single enantiomer, or a non-racemic mixture of enantiomers, or a pharmaceutically acceptable salt thereof, should be greater than 100. […]

[2] = in vivo pharmacokinetic profile after oral administration to dogs; parameters: species or system male beagle dogs; settings: fasted dogs
Experimental: The in vivo pharmacokinetic profiles of the pharmaceutical compositions of the invention were determined as follows. Pharmaceutical compositions of the invention were orally administered to dogs in a controlled experiment to determine pharmacokinetic profile of a spiro-oxindole compound of the invention in a pharmaceutical composition of the invention.
Non-naïve male beagle dogs (Marshall Farms USA, Inc.) ranging in body weights from 6-10 Kg were used for the study. Each dog was fasted overnight before dosing. The fasted dogs (n=3/group) were given a single dose of 100 mg capsule (as setout in Table 4 above) or 400 mg (4×100 mg capsule) by oral administration (PO). Food was returned 4-hours post-dose. Blood samples were collected via jugular venipuncture at various timepoints ([…], 1, 2, 4, 6, 8, 24 and 48 hrs) after administration and plasma concentration was determined by liquid chromatography mass spectroscopy (LC-MS/MS). Concentrations of the active ingredient in the plasma samples at each timepoint were determined using standard methods known to one skilled in the art. The active ingredient concentrations were plotted against time (time in hours versus concentration in ng/mL) and the area under the curve extrapolated to infinity (AUCinf), the Cmax (peak plasma concentration of the active ingredient) and Tmax (time after administration of the pharmaceutical composition when peak plasma concentration level occurs) were calculated.

[3] = biological target: Nav1.7 voltage-gated sodium channel (Homo sapiens, UniProt Q15858); experiment: inhibition of Nav1.7
Sequence of Nav1.7 voltage-gated sodium channel (Q15858 whole entry): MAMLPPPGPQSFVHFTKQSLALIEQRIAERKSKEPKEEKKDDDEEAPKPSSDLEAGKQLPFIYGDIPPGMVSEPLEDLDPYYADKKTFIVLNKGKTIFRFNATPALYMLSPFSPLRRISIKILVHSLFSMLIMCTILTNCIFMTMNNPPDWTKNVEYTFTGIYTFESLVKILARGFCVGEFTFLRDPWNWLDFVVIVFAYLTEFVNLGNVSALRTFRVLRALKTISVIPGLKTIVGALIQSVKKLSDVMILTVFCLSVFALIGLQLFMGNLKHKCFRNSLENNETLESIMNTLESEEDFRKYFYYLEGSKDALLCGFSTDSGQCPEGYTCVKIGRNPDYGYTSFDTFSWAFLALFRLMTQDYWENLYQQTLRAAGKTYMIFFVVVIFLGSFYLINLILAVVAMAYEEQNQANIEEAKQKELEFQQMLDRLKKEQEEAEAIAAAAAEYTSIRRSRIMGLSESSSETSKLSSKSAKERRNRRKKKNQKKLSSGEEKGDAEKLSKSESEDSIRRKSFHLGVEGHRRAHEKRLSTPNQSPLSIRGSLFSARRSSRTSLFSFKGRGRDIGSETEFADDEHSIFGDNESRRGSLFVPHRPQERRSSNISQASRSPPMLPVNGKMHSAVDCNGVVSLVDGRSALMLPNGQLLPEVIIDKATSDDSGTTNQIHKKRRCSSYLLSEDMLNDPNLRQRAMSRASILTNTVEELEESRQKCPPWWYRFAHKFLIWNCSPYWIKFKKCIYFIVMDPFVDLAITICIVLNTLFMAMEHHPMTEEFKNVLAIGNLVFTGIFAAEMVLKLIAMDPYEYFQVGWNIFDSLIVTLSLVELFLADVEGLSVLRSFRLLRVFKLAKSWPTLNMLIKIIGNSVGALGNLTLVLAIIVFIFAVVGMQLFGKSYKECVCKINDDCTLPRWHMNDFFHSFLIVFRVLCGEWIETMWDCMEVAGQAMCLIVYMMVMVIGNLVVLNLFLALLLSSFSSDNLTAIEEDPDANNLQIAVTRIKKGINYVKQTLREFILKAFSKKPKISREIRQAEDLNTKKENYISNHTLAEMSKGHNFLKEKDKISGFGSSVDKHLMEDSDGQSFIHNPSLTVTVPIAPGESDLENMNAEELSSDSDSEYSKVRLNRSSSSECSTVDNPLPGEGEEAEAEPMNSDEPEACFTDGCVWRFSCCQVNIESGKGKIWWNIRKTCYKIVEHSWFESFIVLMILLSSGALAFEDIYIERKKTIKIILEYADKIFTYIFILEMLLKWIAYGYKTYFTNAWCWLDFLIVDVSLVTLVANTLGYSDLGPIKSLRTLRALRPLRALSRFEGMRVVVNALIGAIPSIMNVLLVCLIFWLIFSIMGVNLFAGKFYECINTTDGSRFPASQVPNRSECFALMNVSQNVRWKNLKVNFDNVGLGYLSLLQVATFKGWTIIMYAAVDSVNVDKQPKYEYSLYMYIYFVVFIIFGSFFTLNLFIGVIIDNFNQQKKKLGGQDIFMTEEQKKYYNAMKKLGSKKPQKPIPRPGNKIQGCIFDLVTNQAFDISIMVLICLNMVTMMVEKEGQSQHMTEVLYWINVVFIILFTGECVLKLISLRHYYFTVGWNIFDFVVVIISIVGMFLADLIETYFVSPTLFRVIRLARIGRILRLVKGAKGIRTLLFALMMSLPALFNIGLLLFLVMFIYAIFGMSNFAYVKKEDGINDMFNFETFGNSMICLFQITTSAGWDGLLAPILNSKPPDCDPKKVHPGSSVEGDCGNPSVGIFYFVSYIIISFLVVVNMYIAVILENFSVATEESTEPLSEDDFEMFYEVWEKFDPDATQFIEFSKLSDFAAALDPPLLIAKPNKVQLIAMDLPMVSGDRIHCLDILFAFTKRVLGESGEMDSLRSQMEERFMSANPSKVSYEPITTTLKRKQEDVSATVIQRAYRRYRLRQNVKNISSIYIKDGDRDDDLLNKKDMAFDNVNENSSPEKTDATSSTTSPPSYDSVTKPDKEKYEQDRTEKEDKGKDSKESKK

[4] = system: pain following extraction of impacted third molar teeth; experiment: clinical trial for treatment of dental pain; assay type: in vivo, human; settings: single 500 mg oral dose of composition comprising COMPOUND B
Experimental: The purpose of this clinical trial was to compare the safety and efficacy (onset, duration of relief, and overall efficacy) of a single 500 mg dose of a pharmaceutical composition of the invention comprising COMPOUND B versus a placebo dose for relief of pain following extraction of impacted third molar teeth. Sixty-one subjects were enrolled in the study. The mean age for the subjects was 20.4 years, and all subjects were male. The majority of subjects were Caucasians (95.1%). The severity and relief of the pain was measured using an 11-point Pain Intensity Numerical Rating Scale (graded from 0=no pain at all to 10=worst pain imaginable) (PINRS) and a 5-point Categorical Pain Relief Scale (REL). Subjects completed the PINRS after surgery, but before the administration of (S)-enantiomer of the invention. Efficacy variables were derived from the REL and PINRS scores and included total pain relief (TOTPAR), pain intensity difference (PID), and summed pain intensity difference (SPID) and evaluated at time points of 4, 6, 8, and 12 hours after administration of the pharmaceutical composition of the invention comprising COMPOUND B.

solubility in Labrafac ([1]; excipient Labrafac)	solubility in PEG 400 ([1]; excipient PEG 400)	solution in the excipient combinations of Table 2 ([1]; upon mixing and heating to 70-80° C.)	pIC50 (sodium channel)	solubility in caprylic/capric glycerides such as Imwitor 742 ([1]; excipient Imwitor 742, compared with other excipients)	absorption following PO administration ([2]; single PO dose 100 mg or 400 mg)	Tmax ([2]; male, beagle, dog, plasma, single PO dose 100 mg capsule (Table 4) or 400 mg (4×100 mg capsule)) [h]	Cmax ([2]; male, beagle, dog, single PO dose 100 mg capsule (Table 4) or 400 mg (4×100 mg capsule), plasma) [µg/mL]	inhibition of Nav1.7 [3]	SMILES	solubility in Labrasol ([1]; excipient Labrasol)	onset of action [4]	pain relief compared to placebo [4]	statistical significance from the placebo [4]	primary and all secondary endpoints (TOTPAR, PID, SPID) versus placebo ([4]; 4, 6, 8 and 12 hours)
readily soluble in Labrafac ®. The	readily soluble in PEG 400. PEG	suitable for producing a solution	> 6.00	–	–	–	–	–	O=C1N(Cc2ccc(C(F)(F)F)o2)c2ccccc2C12COc1cc3c(cc12)OCO3 (racemic) [COMPOUND A, 1′-{[5-(trifluoromethyl)-2-furyl]methyl}spiro[furo[2,3-f][1,3]benzodioxole-7,3′-indol]-2′(1′H)-one]	best excipient; also recorded: soluble in Labrasol ®, the excipient	–	–	–	–
–	–	–	–	less than other excipients	readily absorbed	1 to 3	1.3 to 1.6	has been shown to inhibit	O=C1N(Cc2ccc(C(F)(F)F)o2)c2ccccc2[C@]12COc1cc3c(cc12)OCO3 [COMPOUND B, (S)-1′-{[5-(trifluoromethyl)-2-furyl]methyl}spiro[furo[2,3-f][1,3]benzodioxole-7,3′-indol]-2′(1′-H)-one]	–	slow onset of action	higher	not achieved	consistent analgesic trend
